Literature values in patent US20260146034A1, “1H-CYCLOPENTA[B]BENZOFURAN DERIVATIVES FOR THE PREVENTION AND TREATMENT OF VIRUS DISEASES” (priority 2022, published 2026).

Columns and labels:
[1] = tested on: RNA helicase enzyme elF4A; conditions: previous studies
[2] = tested on: corona viruses, SARS and MERS virus
coronavirus = conditions: J. Virology, 2011, 6381
SARS-COV-2 = conditions: eFFECTOR's Therapeutic, Apr. 30, 2020

Silvesterol
inhibition of the RNA helicase enzyme elF4A [1]: potent and selective inhibitor | antiviral activity against corona viruses, SARS and MERS virus [2]: broadspectrum antiviral activity

4E2RCat
blocking coronavirus replication (coronavirus): capable of blocking coronavirus replication

COc1cc2c(c(OC)n1)[C@]1(O)[C@H](O)[C@H](CN(C)C)[C@@H](c3ccccc3)[C@]1(c1ccc(C#N)cc1)O2 [Zotatifin]
anti viral activity against SARS-COV-2 (SARS-COV-2): shows anti viral activity
